Measurements from ChEMBL document CHEMBL5380866, “Discovery of Selective P2Y6R Antagonists with High Affinity and In Vivo Efficacy for Inflammatory Disease Therapy” (J Med Chem, 2023).

Columns and labels:
P2Y purinoceptor 6 [1] = target: T1, P2Y purinoceptor 6 (Homo sapiens, UniProt Q15077); test: Antagonist activity at human P2Y6R expressed in HEK293 cells assessed as inhibition of UDP-induced IP3 production preincubated for 0.5 hrs followed by UDP stimulation and measured after 12 hrs by ELISA analysis; format: functional, cell-based
T1 sequence (Q15077 whole entry): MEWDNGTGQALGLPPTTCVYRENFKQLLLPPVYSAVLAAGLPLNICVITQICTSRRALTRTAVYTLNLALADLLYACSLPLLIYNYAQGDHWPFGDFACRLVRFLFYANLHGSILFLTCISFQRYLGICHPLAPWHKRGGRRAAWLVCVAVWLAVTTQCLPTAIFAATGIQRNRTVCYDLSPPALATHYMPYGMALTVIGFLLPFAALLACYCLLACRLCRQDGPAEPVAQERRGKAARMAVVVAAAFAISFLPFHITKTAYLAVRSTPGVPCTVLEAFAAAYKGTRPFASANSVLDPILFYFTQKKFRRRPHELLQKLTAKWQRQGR

P2Y purinoceptor 12 = P2Y purinoceptor 12 (Homo sapiens, UniProt Q9H244); test: Antagonist activity at human P2Y12R expressed in HEK293 cells assessed as inhibition of MeSADP-induced cAMP production preincubated for 0.5 hrs followed by MeSADP stimulation by cAMP-glo analysis; format: functional, cell-based
Chain of P2Y purinoceptor 12 (Q9H244 whole entry): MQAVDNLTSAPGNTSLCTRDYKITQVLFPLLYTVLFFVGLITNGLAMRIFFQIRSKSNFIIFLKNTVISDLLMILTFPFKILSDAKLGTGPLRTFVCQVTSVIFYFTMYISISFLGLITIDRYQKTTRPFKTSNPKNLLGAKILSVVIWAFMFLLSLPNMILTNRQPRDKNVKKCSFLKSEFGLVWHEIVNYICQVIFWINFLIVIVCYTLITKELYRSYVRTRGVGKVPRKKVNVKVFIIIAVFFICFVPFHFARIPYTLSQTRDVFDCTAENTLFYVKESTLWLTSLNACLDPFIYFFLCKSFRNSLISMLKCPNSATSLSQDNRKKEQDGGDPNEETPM

P2Y purinoceptor 6 [2] = target: T1, P2Y purinoceptor 6; test: Antagonist activity at P2Y6R (unknown origin)
P2Y purinoceptor 14 = target: T2, P2Y purinoceptor 14 (Homo sapiens, UniProt Q15391); test: Antagonist activity at human P2Y14R expressed in HEK293 cells assessed as inhibition of UDPG-induced cAMP production preincubated for 0.5 hrs followed by UDPG stimulation by cAMP-glo analysis; format: functional, cell-based
T2 sequence (Q15391 whole entry): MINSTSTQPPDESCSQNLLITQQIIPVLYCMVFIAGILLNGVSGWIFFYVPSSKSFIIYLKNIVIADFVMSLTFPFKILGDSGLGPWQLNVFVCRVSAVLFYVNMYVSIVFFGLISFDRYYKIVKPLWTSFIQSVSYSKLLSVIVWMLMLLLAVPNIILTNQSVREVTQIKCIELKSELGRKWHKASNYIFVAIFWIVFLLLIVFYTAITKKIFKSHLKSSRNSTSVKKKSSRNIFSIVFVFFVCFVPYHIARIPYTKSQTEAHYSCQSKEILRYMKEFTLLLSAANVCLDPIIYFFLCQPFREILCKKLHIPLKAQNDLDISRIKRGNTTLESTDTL

Cc1ccc2cc(C3CC(c4ccco4)=NN3C(=O)CCC(=O)O)c(Cl)nc2c1 (centres undefined)
IC50 (P2Y purinoceptor 6 [1]): 126 nM

Cc1ccc2oc(-c3cc(-c4ccc[nH]4)n(C(C)(C)C)n3)nc2c1
IC50 (P2Y purinoceptor 6 [1]): 256 nM

CC(C)(C)n1nc(-c2nc3ccccc3[nH]2)cc1-c1ccco1
IC50 (P2Y purinoceptor 6 [1]): 159 nM

Cc1ccc2[nH]c(-c3cc(-c4ccccc4)n(C(C)(C)C)n3)nc2c1
IC50 (P2Y purinoceptor 6 [1]): 77.8 nM

CC(C)(C)n1nc(-c2nc3cc([N+](=O)[O-])ccc3[nH]2)cc1-c1ccco1
IC50 (P2Y purinoceptor 6 [1]): 12.6 nM

CC(C)n1nc(-c2nc3ccccc3s2)cc1-c1ccccc1
IC50 (P2Y purinoceptor 6 [1]): 87.8 nM

CCCSc1nc(N[C@@H]2C[C@H]2c2ccc(F)c(F)c2)c2nnn([C@@H]3C[C@H](OCCO)[C@@H](O)[C@H]3O)c2n1 [TICAGRELOR]
IC50 (P2Y purinoceptor 12): 1400 nM

O=S(=O)(O)c1cc(N=C=S)ccc1/C=C/c1ccc(N=C=S)cc1S(=O)(=O)O
IC50 (P2Y purinoceptor 6 [2]): 5200 nM

CC(C)(C)n1nc(-c2nc3ccccc3o2)cc1-c1ccccc1
IC50 (P2Y purinoceptor 6 [1]): 173 nM

Cc1cccc2oc(-c3cc(-c4ccco4)n(C(C)(C)C)n3)nc12
IC50 (P2Y purinoceptor 6 [1]): 94.2 nM

O=C(O)c1cc(-c2ccccc2C2CCNCC2)c2ccc(-c3ccc(C(F)(F)F)cc3)cc2c1
IC50 (P2Y purinoceptor 14): 5210 nM

CC(C)(C)n1nc(-c2nc3cc(Br)ccc3[nH]2)cc1-c1ccco1
IC50 (P2Y purinoceptor 6 [1]): 45.7 nM

Cc1ccc2oc(-c3cc(-c4ccco4)n(C(C)(C)C)n3)nc2c1
IC50 (P2Y purinoceptor 6 [1]): 202 nM

CC(C)(C)n1nc(-c2nc3ccccc3s2)cc1-c1ccccc1
IC50 (P2Y purinoceptor 6 [1]): 314 nM
